In patent US20200163896A1, “FLOATABLE PHARMACEUTICAL MICROCAPSULE COMPOSITION” (Nanyang Technological University, priority 2017, published 2020):
Like-named read-outs stand apart in the source and are kept apart here.

Tests used:
[1] = Plasma pharmacokinetics after oral gavage in mice; type: in vivo; details: for MRT: mouse, plasma, oral, Table 3
Description: The experimental mice were divided into two groups (control and F2) each comprising of five animals. Control formulation (as a solution) was prepared fresh each experimental day in 0.6% methyl cellulose diluted with saline solution. Mice were subsequently administered with 200 ul (control) or 300 μl (pellet) single dose of drug solution at LD:CD:ENT=10:2.5:20 mg·kg^−1 (Group 1, conventional formulation) and LD:CD:ENT=10:2.5:20 mg·kg^−1 (Group 2, F2 via oral gavage using a feeding syringe. At stipulated time points of 0.25, 0.5, 1, 2, 4, 8, 12, 24 hr, the mice were euthanized and blood was collected via cardiac puncture with ethylenediaminetetraacetic acid (EDTA) as the anticoagulant. The blood samples were then centrifuged (4,500 rpm) for 10 min at 25° C. to obtain the plasma. In addition, the brain was harvested and flash freeze in liquid nitrogen. Samples were stored in −80° C. before further analysis via LC/MS. Analysis of drugs in plasma and brain was conducted using LC/MS (Ribeiro et al., (2015). Bioanalysis, 7, 207-220). An Agilent 1290 HPLC system with an Agilent 6120 Quadrupole Mass Spectrometer was used to measure plasma and brain concentrations of drugs. The mobile phase consisted of a gradient of (A) 0.1% (v/v) formic acid (FA) and a mixture of ACN:MeOH (90:10, v/v) containing 0.1% (v/v) FA.
XBridge C8 column (150×4.6 mm; particle size 5 μm) was used at 30° C. The injection volume of samples was 20 μl. Plasma and brain extracted solution were mixed with internal standard and extracted by solid-phase extraction. The calibration curves were linear over the range of 2 to 2000 ng/mL for LD, 2 to 400 ng/mL for CD and 5 to 3000 ng/mL for ENT.

[2] = In vitro drug release in SGF for 48 h; type: physicochemical; details: 37° C., casein 0-5% (w/v)
Description: In vitro release study was conducted in SGF for 48 h. In some experiments, the study was conducted in SGF, followed by SIF, where the total duration in SGF and SIF is 48 h. Each microcapsule sample (20 mg) was added to a bottle containing SGF or SIF medium (20 mL). Both SGF and SIF bottles were placed in a 37° C. rotating incubator. At different time points, half of the medium (10 mL) in each bottle was extracted and replaced with 10 mL new medium. The time points included intervals of hours within a 48-hour period. The drug content in the extracted medium was analyzed using RP-HPLC with the procedure mentioned in Example 1 for determining encapsulation efficiency.

[3] = cited from earlier work
[4] = casein-microcapsule versus control

Structure (SMILES) | Release rate of drug from microcapsules versus casein concentration [2] | Log P [3] | also measured
N[C@@H](Cc1ccc(O)c(O)c1)C(=O)O [LD, levodopa] | independent of casein concentration |  | increase of MRT of levodopa [1, 4]: ~4 ×; increase of bioavailability (AUC) of levodopa [1, 4]: 2.8 ×; MRT ([1]; given as casein-microcapsule, read-out: mean residence time (MRT) of levodopa, casein-microcapsule): 10.1 h; MRT ([1]; given as control formulation, read-out: mean residence time (MRT) of levodopa, control): 2.6 h
CN(C)C(=N)N=C(N)N [MET, metformin] | independent of casein concentration |  | 
C[C@@](Cc1ccc(O)c(O)c1)(NN)C(=O)O [CD, carbidopa] | independent of casein concentration |  | 
CO[C@H]1/C=C/O[C@@]2(C)Oc3c(C)c(O)c4c(O)c(c(/C=N/N5CCN(C)CC5)c(O)c4c3C2=O)NC(=O)/C(C)=C\C=C\[C@H](C)[C@H](O)[C@@H](C)[C@@H](O)[C@@H](C)[C@H](OC(C)=O)[C@@H]1C [RIF, rifampicin] |  | 4.24 | 
NNC(=O)c1ccncc1 [ISO, isoniazid] | independent of casein concentration | −0.7 | 
CC[C@@H](CO)NCCN[C@@H](CC)CO [ETH, ethambutol] | independent of casein concentration | −0.14 | 
